According to PMC12589438 (Communications Chemistry, 2025):
Positions of bridges follow the written chain, without caps; N, C: chain ends. Non-standard residues stand in square brackets, D forms with d. Residues, ends and D or L forms follow the SMILES beside them. *: point of attachment. Benzoyl(4-F) = O=C(c1ccc(F)cc1)*; Mpa = O=C(O)CCS

How the values were obtained:
[1] = in vitro; details: rat, serum
Description: One hundred and fifty microliters of rat or human serum (Sigma Aldrich) was preheated at 37 °C for 30 min. 25 μL of the tested peptide sample (0.3 M in 0.1 M potassium phosphate buffer at pH 7.2) or 0.1 M potassium phosphate buffer pH 7.2 (for blank sample) were added to the serum and incubated at 37 °C. […] Sampled were centrifugated at 20,000 × g for 10 min, and the supernatant analysed via LC-MS (column: Agilent Technology, Zorbex C18, 2.1 × 100 mm, 5 μm, 300 Å. Elution method: 0–50% B in 50 min, 0.25 mL/min. Solvent A: 0.1% TFA in H2O. Solvent B: 0.1% TFA in ACN). Each peptide sample was analysed in three independent experiments, and data analysis was performed using Prism Version 7, a nonlinear fit one-phase decay model.

[2] = physchem; details: buffer
Description: (§3) Tested peptides were dissolved (1 mM) in 100 mM sodium citrate buffer (pH 3), 100 mM potassium phosphate buffer (pH 7), or 100 mM sodium carbonate buffer (pH 9).

[3] = target: T1, human OTR (Homo sapiens, UniProt P30559); assay: FLIPR calcium mobilisation assay, hOTR; format: cell-based; details: for EC50: COS-1 cells transfected with hOTR, n = 3, mean ± SEM
T1 construct: expressed in transfected cells; host or cells: COS-1
T1 sequence (P30559 1-389): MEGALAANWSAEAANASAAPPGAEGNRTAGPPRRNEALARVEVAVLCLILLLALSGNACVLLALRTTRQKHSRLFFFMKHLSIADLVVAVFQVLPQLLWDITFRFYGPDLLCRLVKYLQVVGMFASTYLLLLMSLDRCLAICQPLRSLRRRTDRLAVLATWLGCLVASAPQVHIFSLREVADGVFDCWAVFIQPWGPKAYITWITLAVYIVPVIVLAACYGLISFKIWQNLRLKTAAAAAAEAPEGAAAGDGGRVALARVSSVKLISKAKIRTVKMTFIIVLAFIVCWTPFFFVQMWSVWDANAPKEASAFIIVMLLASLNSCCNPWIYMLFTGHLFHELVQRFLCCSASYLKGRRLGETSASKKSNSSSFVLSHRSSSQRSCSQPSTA
Description: (§1) OTR belongs to the rhodopsin-type (class I) G protein-coupled receptor (GPCR) family and is closely related to the vasopressin (VP) receptor (VPR) family (V1aR, V1bR, V2R). […] OTR, V1aR, and V1bR are expressed in the periphery and in CNS, while V2R is primarily expressed in the kidneys and was deemed not in scope for our exploration. The EC50 of our ligands was measured using a Fluorescent Imaging Plate Reader (FLIPR) calcium mobilisation assay (Fig. 2C)[34].
(§2) COS-1 cells were cultured in Dulbecco’s modified Eagle’s medium (DMEM) and 5% foetal bovine serum (FBS). […] Fluo-4-AM [4-(6-acetoxymethoxy-2,7-difluoro-3-oxo-9-xanthenyl)-4′-methyl-2,2′-(ethylenedioxy)dianilineN,N,N′,N′-tetraacetic acid tetrakis(acetoxymethyl) ester] ([…]) in PSS containing 0.3% fatty acid-free BSA was then added, and the cells incubated for 30 min at 37 °C. […] The baseline fluorescence was set to a minimum of 1000 arbitrary fluorescence units. The baseline fluorescence was read 10 times, followed by the addition of test compounds and fluorescence measurement every second for 180 s. The test compounds were added as an 8-point gradient in triplicate, with the highest concentration of 10 μM in PSS. To convert the raw fluorescence data to DF/F, the baseline fluorescence readings were subtracted from subsequent time points, and the resulting value was divided by the baseline fluorescence values.

[4] = target: T2, human V1aR (Homo sapiens, UniProt P37288); assay: FLIPR calcium mobilisation assay, hV1aR; format: cell-based; details: COS-1 cells transfected with hV1aR; n = 3, mean ± SEM
T2 construct: expressed in transfected cells; host or cells: COS-1
Description: as §1
as §2, with “°C. The cells were then transferred to a” for “°C.”

[5] = target: T3, human V1bR (Homo sapiens, UniProt P47901); assay: FLIPR calcium mobilisation assay, hV1bR; format: cell-based; details: COS-1 cells transfected with hV1bR; n = 3, mean ± SEM
T3 construct: expressed in transfected cells; host or cells: COS-1
T3 sequence (P47901 1-424): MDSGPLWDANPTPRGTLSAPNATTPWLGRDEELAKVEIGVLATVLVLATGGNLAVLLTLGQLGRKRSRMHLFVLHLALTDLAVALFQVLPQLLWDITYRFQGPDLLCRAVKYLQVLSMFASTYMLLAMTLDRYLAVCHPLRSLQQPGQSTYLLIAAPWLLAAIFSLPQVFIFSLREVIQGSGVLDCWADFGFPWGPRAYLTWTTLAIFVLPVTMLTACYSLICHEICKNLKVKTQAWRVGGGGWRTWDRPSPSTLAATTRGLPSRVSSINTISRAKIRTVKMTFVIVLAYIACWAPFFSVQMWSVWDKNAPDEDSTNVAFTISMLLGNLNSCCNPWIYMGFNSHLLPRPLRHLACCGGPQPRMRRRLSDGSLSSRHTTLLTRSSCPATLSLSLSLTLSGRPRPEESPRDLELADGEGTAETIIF
Description: as §1, §2

[6] = Hydrophobicity assessment by analytical C18-RP-HPLC; format: physicochemical; details: 0–40% B
Description: To identify the most OT-like radiotracer, we first assessed the hydrophobicity of all compounds by comparing their retention times with OT on an analytical C18-RP-HPLC column (Fig. 2A).
Fig. 2 Pharmacological characterisation of OT analogues. […] B Metabolic stability of OT analogues in rat and human serum. Each time point was analysed in three independent experiments (n = 3 technical triplicates, mean ± SEM). C Potencies (EC50) values for OT and analogues at the human OTR, V1aR, and V1bR, determined by a FLIPR calcium mobilisation assay (n = 3 technical triplicates, mean ± SEM). […]; similar hydrophobicity with HPLC Rt ± 20% from OT; buffer t1/2 > 30 min at pH 7; […]; EC50 at OTR < 50 nM; EC50 at V1aR and V1bR < 5×EC50(OTR) (n.a.: not assessed).

[7] = pH 7
Description: as §3

[8] = Stability test at different pH (buffered solutions); details: buffer
Description: as §3

[9] = pH 3, t1/2 pH 3.0, 100 mM sodium citrate buffer pH 3, 10 h
[10] = pH 7, t1/2 pH 7.0, 100 mM potassium phosphate buffer pH 7, 10 h
[11] = pH 9, t1/2 pH 9.0, 100 mM sodium carbonate buffer pH 9, 10 h

T2 sequence (P37288 whole entry): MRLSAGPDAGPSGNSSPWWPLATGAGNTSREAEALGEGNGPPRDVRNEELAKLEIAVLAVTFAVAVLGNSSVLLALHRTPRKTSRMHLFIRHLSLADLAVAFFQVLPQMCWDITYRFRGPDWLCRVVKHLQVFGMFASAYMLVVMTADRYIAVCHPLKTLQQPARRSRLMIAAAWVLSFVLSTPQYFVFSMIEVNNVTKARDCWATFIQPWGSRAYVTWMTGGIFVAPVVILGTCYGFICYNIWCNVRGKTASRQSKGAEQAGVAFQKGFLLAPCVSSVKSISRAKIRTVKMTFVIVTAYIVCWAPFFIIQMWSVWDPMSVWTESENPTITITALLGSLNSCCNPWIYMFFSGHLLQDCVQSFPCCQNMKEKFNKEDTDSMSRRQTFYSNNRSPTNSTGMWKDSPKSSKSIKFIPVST

| SMILES | half-life at 0.043 M [1] [h] | half-life at 1 mM ([2]; pH 3) [h] | half-life at 1 mM ([2]; pH 7) [h] | half-life at 1 mM ([2]; pH 9) [h] | EC50 [3] [nM] | fold less potent than OT at OTR ([3]; EC50 compared with OT) | EC50 [4] [nM] | EC50 [5] [nM] | hydrophobicity compared with OT (retention on C18-RP-HPLC) [6] | fold more potent than OT at OTR ([3]; EC50 compared with OT) | degradation within 10 h [7] [%] | half-life at 1 mM [8, 9] [h] | half-life at 1 mM ([8]; pH 7, t1/2 at pH 7, pH 7, as stated in main text) [h] | half-life at 1 mM [8, 10] [h] | half-life at 1 mM ([8]; pH 9, t1/2 at pH 9, pH 9, as stated in main text) [h] | half-life at 1 mM [8, 11] [h] |
| --- | --- | --- | --- | --- | --- | --- | --- | --- | --- | --- | --- | --- | --- | --- | --- | --- |
| CC[C@H](C)[C@@H]1NC(=O)[C@H](Cc2ccc(O)cc2)NC(=O)[C@@H](N)CSSC[C@@H](C(=O)N2CCC[C@H]2C(=O)N[C@@H](CC(C)C)C(=O)NCC(N)=O)NC(=O)[C@H](CC(N)=O)NC(=O)[C@H](CCC(N)=O)NC1=O [OT, oxytocin, reference compound] | 47 ± 0.05 | > 10 | > 10 | > 10 | – | – | – | – | – | – | – | – | – | – | – | – |
| CC[C@H](C)[C@@H]1NC(=O)[C@H](Cc2ccc(O)cc2)NC(=O)[C@@H](N)CSSC[C@@H](C(=O)N2CCC[C@H]2C(=O)N[C@@H](CCCCNC(=O)CON=Cc2ccc(F)cc2)C(=O)NCC(N)=O)NC(=O)[C@H](CC(N)=O)NC(=O)[C@H](CCC(N)=O)NC1=O [OTK^8[Aoa-FBA]] | 18 ± 0.04 | > 10 | > 10 | > 10 | 42.1 ± 1.4 | ~ 4 fold | 331.6 ± 0.4 | 354 ± 5.7 | significantly more hydrophobic | – | – | – | – | – | – | – |
| CC[C@H](C)[C@@H]1NC(=O)[C@H](Cc2ccc(O)cc2)NC(=O)[C@@H](N)CSSC[C@@H](C(=O)N2CCC[C@H]2C(=O)N[C@@H](CCCCNC(=O)CON=C[C@H](F)[C@@H](O)[C@H](O)[C@H](O)CO)C(=O)NCC(N)=O)NC(=O)[C@H](CC(N)=O)NC(=O)[C@H](CCC(N)=O)NC1=O [OTK^8[Aoa-FDG]] | 13 ± 0.11 | > 10 | > 10 | > 10 | 5.25 ± 5.1 | – | 115 ± 81 | 54 ± 31 | – | ~ 2 fold | 25 | – | – | – | – | – |
| CC[C@H](C)[C@@H]1NC(=O)[C@H](Cc2ccc(O)cc2)NC(=O)CCSSC[C@@H](C(=O)N2CCC[C@H]2C(=O)N[C@@H](CCCCN(CCS(=O)(=O)F)CCS(=O)(=O)F)C(=O)NCC(N)=O)NC(=O)[C@H](CC(N)=O)NC(=O)[C@H](CCC(N)=O)NC1=O [dOTK^8[ESF2]] | – | – | – | – | – | – | – | – | significantly more hydrophobic | – | – | 3.6 | < 0.5 | < 1 | < 0.5 | < 1 |
| CC[C@H](C)[C@@H]1NC(=O)[C@H](Cc2ccc(O)cc2)NC(=O)CCSSC[C@@H](C(=O)N2CCC[C@H]2C(=O)N[C@@H](CCCCNCCS(=O)(=O)F)C(=O)NCC(N)=O)NC(=O)[C@H](CC(N)=O)NC(=O)[C@H](CCC(N)=O)NC1=O [dOTK^8[ESF]] | – | – | – | – | – | – | – | – | – | – | – | > 10 | – | > 10 | – | > 10 |
| CC[C@H](C)[C@@H]1NC(=O)[C@H](Cc2ccc(O)cc2)NC(=O)CCSSC[C@@H](C(=O)N2CCC[C@H]2C(=O)N[C@@H](CCCCNC(=O)c2ccc(F)cc2)C(=O)NCC(N)=O)NC(=O)[C@H](CC(N)=O)NC(=O)[C@H](CCC(N)=O)NC1=O [dOTK^8[SFB]] ([Mpa]YIQNCPK(Benzoyl(4-F))G-NH2; disulfide 1-6) | > 48 | > 10 | > 10 | > 10 | 46.8 ± 1.5 | ~ 4 fold | 334.3 ± 0.6 | 46 ± 3.6 | – | – | 25 | – | – | – | – | – |
